Assay results from paper PMC5078989, “Targeted inhibition of the COP9 signalosome for treatment of cancer” (Nature Communications, 2016).
pEC50: −log10 of the molar value.

Legend:
HCT116 cells = assay: Immunoblotting of cullins, CRL components and substrates in HCT116 cells; type: cell-based, human; conditions: qualitative western blot analysis
Procedure: Figure 2 CSN5 inhibition results in the inactivation of a subset of CRLs and the stabilization of their substrates. Effect on CRL components and substrates after treatment of HCT116 cells with either 1 μM MLN4924 or 1 μM CSN5i-3. (a) Immunoblottings for Cul1 and its CRL components Rbx and Skp1; (b) for cullins Cul2, Cul3 and Cul4A; (c) for F-box protein Skp2 and the SCF^Skp2 substrates p21 and p27; (d) for F-box proteins Fbxo22 and Fbxo30; (e) for F-box protein βTrCP and the SCF^βTrCP substrates Wee1 and pIκBα; (f) for the adaptor KEAP1 and the Cul3^KEAP1 substrate Nrf2; (g) for F-box proteins Fbxw7 and Fbxo3.
Cells were maintained in a humidified incubator at 37 °C and 5% CO2. HCT116 cells (ATCC #CCL-247) were grown in McCoy's 5A medium (GIBCO #16600–082) supplemented with 10% fetal bovine serum (FBS), TE-1 (RIKEN BioResource Center, #RCB1894), NCI-H2030 (ATCC #CRL-591), SU-DHL-1 (DMSZ #ACC 356), NOMO-1 (HSRRB #IFO50474) and NCIH196 cells (ATCC, #CRL-5823) in RPMI-1640 medium (GIBCO#61870–010) supplemented with 10% FBS, 10 mM HEPES, 1 mM sodium pyruvate and THP-1 cells (ATCC #TIB-202) with additional 0.05 mM 2-mercaptoethanol. DMS273 cells (ECACC #950628) were cultured in Waymouth's MB 752/1 medium (GIBCO#11220–035) supplemented with 10% FBS. All cells were negatively tested for mycoplasma contamination either by the vendor or in house. For treatment with compounds, sub-confluent cells were either treated with inhibitors at the indicated concentrations or mock treated with an equivalent amount of DMSO (final content 0.1%). If not stated otherwise, cells were harvested after incubation for 16 h and subjected to SDS–PAGE and western blotting. The RNA interference experiment was performed with CSN5 stealth siRNA (#HSS116986) and stealth negative control siRNA (#12935–400) (Invitrogen), which were transfected at 10 nM into HCT116 cells using HiperFect (Qiagen) according to the manufacturer's protocols. Seventy-two hours after transfection, cells were harvested and subjected to SDS–PAGE and western blotting (see Supplementary Fig. 7 for all western blottings performed).
For further analysis, cell lysates were prepared by direct lysis with 2 × Sample buffer (65.8 mM Tris-HCl, pH 6.8, 2.1% SDS, 26.3% glycerol, 0.01% bromophenol blue and 20 mM DTT). Protein lysates from tumour powder were prepared in RIPA buffer (50 mM Tris-HCl pH 8.0, 150 mM NaCl, 1% Triton X-100, 2 mM EDTA, 0.5% sodium deoxycholate and 0.1% SDS) supplemented with 10 mM N-ethylmaleimide, protease inhibitor and phosphatase inhibitor cocktails (Roche Diagnostics). Cells from longer compound incubations were also lysed in RIPA buffer, which allows the protein concentration to be determined by BCA Protein Assay Kit (Pierce). Proteins were separated by SDS–PAGE using 4–20% Tris-Glycine Gels (Invitrogen) and subsequently transferred to polyvinylidene difluoride membranes using a Trans-Blot Turbo System (BioRad). […] Horseradish peroxidase-conjugated secondary antibodies (1:3,000) were purchased from Promega AG and bound antibody was detected by enhanced chemiluminescence (Pierce).

[1] = tested on: panel of cancer cell lines; assay: Cell viability (CellTiter-Glo) dose-response across cancer cell line panel; type: cell-based, human; conditions: SNB-19;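 further: after 72 h compound incubation with CellTiter-Glo ATP readout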
Excerpt: Next, we explored the effect of CSN5 inhibition on the viability of cancer cells. To obtain a comprehensive picture, we generated dose–response curves with a CSN5 inhibitor across more than 500 cancer cell lines in a previously described standardized setting[47] (Supplementary Data 1).
A standardized CellTiter-Glo Assay (Promega #G7570) based on the quantification of ATP was applied according to the manufacturer's protocol to measure the amount of viable cells in culture. In brief, cells were seeded into 384-well plates at optimal density for each cell line. After 4 h, compounds were added at different concentrations in growth medium and incubated for another 72 h in a humidifying chamber at 37 °C and 5% CO2. […] EC50 values were calculated from the plot of percentage of inhibition versus inhibitor concentration using the nonlinear regression analysis software Origin 7.5SR6 (OriginLab Corp.).

Structure (SMILES) | cullin-1 (Cul1) deneddylation in HCT116 cells (HCT116 cells) | pEC50 [1]
N#Cc1ccc([C@H]2[C@@H](O)CCCc3cncn32)c(-c2ccccc2)c1 (relative stereo) [CSN5i-1a, Cis-6-(6-Hydroxy-6,7,8,9-tetrahydro-5H-imidazo[1,5-a]azepin-5-yl)-[1,1′-biphenyl]-3-carbonitrile] | weakly inhibited | 
CC(C)C[C@H](NC(=O)[C@H](Cc1ccccc1)NC(=O)c1cnccn1)B(O)O [Botezomib] |  | 8.02
